Measurements from patent US9518038B2, “Condensation product of theanine derivative and carboxylic acid coumarin derivative, its intermediate, preparation method and use thereof” (SHANDONG YINGDONG YINGHAO BIOTECHNOLOGY, INC., priority 2012, dated 2016).

Key:
[1] = test system: human breast cancer cells MDA-MB231 xenograft; assay: In-vivo growth of MDA-MB231 xenografts in nude mice; set-up: species or system BALB/c nude mice; conditions: Mus musculus, MDA-MB-231, ip, MB-231 xenograft, vs DMSO solvent control, read-out: Curative effect (inhibition rate %) of tumor weight; for inhibition in vivo at 60 mg/kg: 60 mg/kg intraperitoneal once a day; for inhibition in vivo at 90 mg/kg: 90 mg/kg intraperitoneal once a day
Description: (§1) RPMI1640 and DMEM culture solutions: Hyclone Company; inactivated fetal bovine serum: Hyclone Company, preserved at −20° C.; trypsin: Amersco Company; and 0.4% trypan blue: Sigma Company;
(§2) (3) Observation of growth of tumors in nude mice: the activities (including food intake, traits of urine and stool, mental state and the like) of the nude mice and the tumor growth time and growth situation of the transplanted tumors were observed every day, the body weight and the size of the tumors were measured once every 2-3 days. The long diameter a and the short diameter b (mm) of each tumor were measured by a vernier caliper to calculate the volume, wherein the volume V=π1/2·ab^2 (mm^3);
(§3) (4) sacrifice of animals: the mice were anesthetized and photoed after treatment experiments; the nude mice were sacrificed by breaking neck, the tumor tissues were stripped under sterile conditions and the weight of the tumors was weighed; and the effects of the drugs on pathology and toxicity of the various organs and tissues were detected.

[2] = test system: human neuroma cells D54; assay: MTT growth inhibition, D54 cells; type: cell-based; conditions: Homo sapiens, 72 h after treatment, read-out: Drug concentration (IC50) at which 50% cancer cells survived
[3] = target: T1, EZH2 (Homo sapiens, UniProt Q15910); assay: EZH2 enzyme activity in protein extracts of human tumor xenografts of treated mice (EZH2 Assay Kit); type: in vivo; conditions: tumors excised 6 h after medication, SAHA 25 mg/kg
T1 construct: the EZH2 enzyme was replaced with tumor protein extracts in each group; from tissue; host or cells: human tumour xenografts excised from treated nude mice
T1 sequence (Q15910 whole entry): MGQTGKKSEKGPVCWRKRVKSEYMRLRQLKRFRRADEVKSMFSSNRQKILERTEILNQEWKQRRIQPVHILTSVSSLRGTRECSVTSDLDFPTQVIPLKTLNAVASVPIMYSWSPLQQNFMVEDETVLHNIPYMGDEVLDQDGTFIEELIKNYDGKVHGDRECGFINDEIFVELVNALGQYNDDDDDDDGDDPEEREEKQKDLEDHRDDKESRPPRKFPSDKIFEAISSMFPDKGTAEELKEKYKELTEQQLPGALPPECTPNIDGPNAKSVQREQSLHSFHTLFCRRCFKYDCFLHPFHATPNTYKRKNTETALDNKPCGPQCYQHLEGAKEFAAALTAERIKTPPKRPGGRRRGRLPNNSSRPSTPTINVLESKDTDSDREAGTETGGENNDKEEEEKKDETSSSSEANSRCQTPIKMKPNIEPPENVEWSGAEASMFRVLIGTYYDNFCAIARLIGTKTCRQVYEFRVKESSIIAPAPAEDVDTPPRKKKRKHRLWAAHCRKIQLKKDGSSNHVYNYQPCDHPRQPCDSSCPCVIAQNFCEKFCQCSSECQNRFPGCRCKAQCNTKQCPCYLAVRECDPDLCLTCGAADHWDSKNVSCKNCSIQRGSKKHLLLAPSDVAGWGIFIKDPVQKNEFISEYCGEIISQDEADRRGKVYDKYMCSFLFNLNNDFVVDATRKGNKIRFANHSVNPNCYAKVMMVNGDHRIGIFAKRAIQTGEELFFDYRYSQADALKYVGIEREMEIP
T1 sequence (O75530 whole entry partner): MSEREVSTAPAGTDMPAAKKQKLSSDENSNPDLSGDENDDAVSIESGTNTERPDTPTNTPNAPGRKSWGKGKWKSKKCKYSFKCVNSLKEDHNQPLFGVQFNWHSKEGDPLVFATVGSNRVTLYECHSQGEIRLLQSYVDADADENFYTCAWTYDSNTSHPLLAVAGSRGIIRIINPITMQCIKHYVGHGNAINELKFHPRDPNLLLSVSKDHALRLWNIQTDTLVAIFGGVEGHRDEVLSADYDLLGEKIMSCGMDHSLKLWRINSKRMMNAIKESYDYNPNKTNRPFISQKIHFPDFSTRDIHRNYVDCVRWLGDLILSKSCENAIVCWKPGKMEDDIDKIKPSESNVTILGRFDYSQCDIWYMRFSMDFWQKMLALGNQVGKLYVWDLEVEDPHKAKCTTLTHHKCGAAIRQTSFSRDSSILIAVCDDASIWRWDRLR
T1 sequence (Q15022 whole entry partner): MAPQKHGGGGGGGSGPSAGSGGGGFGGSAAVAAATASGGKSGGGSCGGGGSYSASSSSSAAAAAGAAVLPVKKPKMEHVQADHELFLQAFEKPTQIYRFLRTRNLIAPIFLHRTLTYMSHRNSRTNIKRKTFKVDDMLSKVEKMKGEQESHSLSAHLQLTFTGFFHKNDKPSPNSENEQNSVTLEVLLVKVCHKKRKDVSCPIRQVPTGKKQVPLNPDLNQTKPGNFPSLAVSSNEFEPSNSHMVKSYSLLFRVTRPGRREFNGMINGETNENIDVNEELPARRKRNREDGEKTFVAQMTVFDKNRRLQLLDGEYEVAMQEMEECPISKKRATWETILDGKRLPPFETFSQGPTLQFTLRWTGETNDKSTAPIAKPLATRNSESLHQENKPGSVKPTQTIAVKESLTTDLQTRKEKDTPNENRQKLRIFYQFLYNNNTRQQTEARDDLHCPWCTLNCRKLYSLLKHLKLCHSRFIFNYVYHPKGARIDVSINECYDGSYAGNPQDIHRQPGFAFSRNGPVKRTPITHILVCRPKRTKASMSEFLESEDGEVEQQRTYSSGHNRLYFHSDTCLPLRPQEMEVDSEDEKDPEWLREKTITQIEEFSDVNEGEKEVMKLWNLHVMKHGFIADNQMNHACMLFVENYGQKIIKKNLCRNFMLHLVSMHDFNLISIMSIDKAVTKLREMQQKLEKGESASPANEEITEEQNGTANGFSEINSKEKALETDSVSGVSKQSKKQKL

[4] = test system: Bcl-2/Bax; assay: Western Blotting, Bcl-2/Bax level; type: cell-based; conditions: human liver cancer cells, Lewis lung cancer cells and other cancer cell lines and tumor tissues, read-out: Effective concentration (IC50) for inhibition of Bcl-2/Bax
Description: (§4) Antibodies: primary antibodies of VEGFR, EGFR, c-Met, K-Ras, H-Ras, Akt, NF-κB, Cyclin D1, ER-alpha, Dvl-1, Dvl-2, Dvl-3, MMP-9, MMP2, β-catenin, Bcl-2, Bax, p53, p21, E-cadherin and Caspase3 protein, purchased from American Cell Signaling Technology Company and Santa Cruz Technology Company; and H3 acetylation, H4 acetylation and HDAC (HDAC3, HDAC4 and the like) Antibody Sample Kits, purchased from Cell Signaling Technology Company of the U.S.
(§5) (3) polyacrylamide gel electrophoresis (SDS-PAGE): an equal amount of protein lysate sample was used to separate protein, film transfer, and blocking, treated with appropriate primary antibodies and secondary antibodies in sequence, and the film was washed, then the color was developed with ECL kit, and a blot protein band was detected by exposure of an X-ray film; and a Gel-Pro Analyzer was used for quantitative analysis of gray degree, optical density value of the control group and the drug treatment group in various concentration were respectively compared with that of internal reference, the obtained ratios were respectively compared with the control group, and the protein expression level was semi-quantified.

[5] = test system: human lung cancer cells A549 xenograft; assay: In-vivo growth of A549 xenografts in nude mice; set-up: species or system BALB/c nude mice; conditions: Mus musculus, ip, vs DMSO solvent control, read-out: Curative effect (inhibition rate %) of tumor weight; for inhibition in vivo at 60 mg/kg: 60 mg/kg intraperitoneal once a day; for inhibition in vivo at 90 mg/kg: 90 mg/kg intraperitoneal once a day
Description: as §1, §2, §3

[6] = test system: Lewis lung cancer (highly metastatic mouse lung cancer) cells; assay: Mouse Lewis lung cancer metastasis model; type: in vivo, C57/BL6J black mice; conditions: Lewis lung carcinoma, ip, LLC, vs DMSO solvent control, read-out: tumor lung metastasis inhibition rate % of mouse Lewis lung cancer; for inhibition in vivo at 60 mg/kg: 60 mg/kg intraperitoneal once a day; for inhibition in vivo at 90 mg/kg: 90 mg/kg intraperitoneal once a day
Description: as §1, §3

[7] = test system: human oral epidermoid cancer cells KBV200; assay: MTT growth inhibition, KBV200 cells; type: cell-based; conditions: 72 h after treatment, read-out: Drug concentration (IC50) at which 50% cancer cells survived
[8] = test system: p21; assay: Western Blotting, increase of p21 level; type: cell-based; conditions: liver cancer cells, Lewis lung cancer cells and other cancer cell lines and tumor tissue protein lysates, 48 h treatment, read-out: Effective concentration to increase p21 by 50%
Description: as §4, §5

[9] = test system: human pancreatic cancer cells PANC-1 xenograft; assay: In-vivo growth of PANC-1 xenografts in nude mice; set-up: species or system BALB/c nude mice; conditions: Mus musculus, ip, vs DMSO solvent control, read-out: Curative effect (inhibition rate %) of tumor weight; for inhibition in vivo at 60 mg/kg: 60 mg/kg intraperitoneal once a day; for inhibition in vivo at 90 mg/kg: 90 mg/kg intraperitoneal once a day
Description: as §1, §2, §3

[10] = test system: human breast cancer cells MDA-MB-231; assay: MTT growth inhibition, MDA-MB-231 cells; type: cell-based; conditions: 72 h after treatment, read-out: Drug concentration (IC50) at which 50% cancer cells survived

SMILES | inhibition in vivo at 60 mg/kg [1] | inhibition in vivo at 90 mg/kg [1] | IC50 [2] | decrease of EZH2 enzyme activity/inhibition rate ([3]; A549 tumor grown in vivo) | decrease of EZH2 enzyme activity/inhibition rate ([3]; MCF7 tumor grown in vivo) | decrease of EZH2 enzyme activity/inhibition rate ([3]; MDA-MB231 tumor grown in vivo) | decrease of EZH2 enzyme activity/inhibition rate ([3]; SMMC7721 tumor grown in vivo) | IC50 [4] | inhibition in vivo at 60 mg/kg [5] | inhibition in vivo at 90 mg/kg [5] | inhibition in vivo at 60 mg/kg [6] | inhibition in vivo at 90 mg/kg [6] | IC50 [7] | EC50 [8] | inhibition in vivo at 60 mg/kg [9] | inhibition in vivo at 90 mg/kg [9] | IC50 [10]
CCNC(=O)CC[C@@H](NC(=O)c1cc2cc(Br)ccc2oc1=O)C(=O)OCC [Compound Id, (R)-2-(6-Br-2-oxo-2H-benzopyran-3-carboxamido)-5-ethylamino-5-oxo-pentanoic acid ethyl ester] | 53.1% | 66.7% | 92 µM | 61%*(A549)- | 56%*(MCF7) | 58%*(MDA-MB231) | 59%*(SMMC7721); | < 100 µM | 63.6% | 69.6% | 69.2% | 82.5% | 112 µM | < 100 µM | 54.2% | 64.8% | 91 µM
CCNC(=O)CC[C@@H](NC(=O)c1cc2cc(Cl)cc(Cl)c2oc1=O)C(=O)OCC [Compound Ig, (R)-2-(6,8-dichloro-2-oxo-2H-benzopyran-3-carboxamido)-5-ethylamino-5-oxo-pentanoic ethyl ester] | 59.1% | 72.1% | 79 µM | 57%*(A549)- | 65%*(MCF7) | 61%*(MDA-MB231) | 58%*(SMMC7721); | < 70 µM | 56.6% | 66.6% | 75.5% | 79.9% | 84 µM | < 70 µM | 55.6% | 68.9% | 92 µM
CCNC(=O)CC[C@@H](NC(=O)c1cc2cc(Br)cc(Br)c2oc1=O)C(=O)OCC [Compound Ih, (R)-2-(6,8-dibromo-2-oxo-2H-benzopyran-3-carboxamido)-5-ethylamino-5-oxo-pentanoic ethyl ester] | 55.1% | 75.1% | 87 µM | 55%*(A549)- | 61%*(MCF7) | 59%*(MDA-MB231) | 56%*(SMMC7721); | < 70 µM | 53.8% | 63.8% | 77.9% | 80.7% | 72 µM | < 100 µM | 51.3% | 67.3% | 98 µM
